Like-named read-outs stand apart in the source and are kept apart here.
Experiments:
[1] = tested on: human mixed lymphocyte reaction (MLR); assay: Human mixed lymphocyte reaction (MLR) assay; format: cell-based; conditions: read-out: Human MLR IC50 ± S.E.M.
[2] = Pharmacokinetics after single intravenous dose in cynomolgus monkey; format: in vivo; conditions: for t1/2: terminal elimination, single 2.5 mg/kg intravenous dose, blood; for Terminal elimination half-life compared to rapamycin: cynomolgus monkey, intravenous
[3] = Six-hour elution from PC1036-coated coupons (FIG. 10-13); format: physicochemical; conditions: for Amount released from coupon: after 6 hours, pH 7.4 PBS, 37° C.; for Amount remaining on coupon: six-hour elution
Experimental: Prior to any experimentation, coated stainless steel coupons were prepared. These coupons were 316 L electropolished stainless steel discs (10 mm diameter). This size was chosen because the surface area of one side of the coupon is similar to the surface area of a 15-mm open cell BiodivYsio stent. […]. The cleaning was a two-step process in which the coupons are sonicated for 3 minutes in dichloromethylene and 3 minutes in ethanol. The coupons were allowed to dry at room temperature. One side of the coupon was coated using a filtered 20-mg/mL solution of phosphoryl choline polymer PC1036 (product of Biocompatibles Ltd., Farnham, Surrey, UK) in ethanol. Twenty μL PC solution was placed onto the coupon using a gas tight glass syringe, ensuring that the entire surface was coated but not spilling over the sides of the coupon. The coupons were initially air dried and then cured at 70° C. for 16 hours. They were then sent for gamma irradiation at <25KGy. The resulting PC coating thickness was close to that of the stent and thick enough to accommodate the desired loaded drug dose, as graphically represented in FIG. 9A-B. FIG. 9A-B is a top and side view of a coated stainless steel coupon 30, having a PC-coating 20 on a electropolished stainless steel disc.
In these experiments, beneficial agents were loaded onto coupons and elution profiles examined. In general, the procedure is as follows. Twelve PC-coated coupons were loaded with each drug. The solutions of the drugs were usually 5.0 mg/mL in 100% ethanol and were filtered with a 0.45 μm filter prior to use.
The coupons were weighed before loading with the drug solution. To load 100 μg of drug, 20 μL of solution was placed (e.g., pipetted) on the center of the PC coated side of the coupon. The coupon was placed in a vial for 30 minutes with the lid closed to allow the drug to penetrate the coating. The lid was removed and the coupon was allowed to dry for an additional 90 minutes. To ensure that the coupon was completely dry, the coupon was weighed, and after 15 minutes the coupon was weighed a third time. When two weightings of the coupon were the same, the coupon was considered dry. The loaded, dry coupons were stored in a refrigerator protected from light.
For each drug, six coupons were used to evaluate the total amount of drug loaded by the above procedure. The coupons were immersed in 5 mL of 50% ethanol, 50% water solution and sonicated for 1 hour. The concentration of the drug in the extraction solution was analyzed by HPLC.
At the end of the elution experiments discussed below, the coupons were removed from the elution media and immersed in 5 mL of 50% ethanol, 50% water solution and sonicated for 1 hour. The concentration of the drug in these vials indicated the amount of the drug remaining in the coupons at the end of the elution experiments.
Six coated coupons of each drug were used for the elution experiments. The coupons were individually placed, coating side up, in small metal cups to hold the coupon and to allow movement to a new vial at each time point. The coupons were usually placed in a vial containing 10 mL of pH 7.4 phosphate buffered saline. The vials were stored in an orbital shaker, with horizontal shaking of 100 rpm, at 37° C. for at least 30 minutes before insertion of a coupon to allow the solution to equilibrate at the desired temperature. After the desired time had lapsed, the coupon holder was lifted and allowed to drain. It was then placed into a pre-warmed vial corresponding to the next time point. This procedure continued until the predetermined time had elapsed. At that point, the coupons went through a drug extraction step as outlined earlier. The amount of drug in the elution samples was determined by HPLC.

[4] = representative summary; cited from earlier work
[5] = Stability of dexamethasone on PC-coated stents in ETO sterilization (FIG. 16); format: physicochemical
[6] = Shake-flask aqueous solubility study of DES drugs (FIG. 20); conditions: for Aqueous solubility, rank order: amorphous DES drugs, dexamethasone crystalline
[7] = Transfer coefficient (P divided by S) of DES drugs (FIG. 21); format: physicochemical; conditions: P divided by equilibrium aqueous solubility S (μg/ml)
[8] = Shake-flask octanol/water partition coefficient study of DES drugs (FIG. 20); format: physicochemical
Experimental: “Solubility” is based on a standard measure used in medicinal chemistry. The octanol-water partition coefficient (P) is the ratio of distribution of a compound in a mixture of 1-octanol and H2O. Log P is the base 10 logarithm of the partition coefficient.
In the measurement of the partition coefficient (octanol/water), preliminary studies were conducted to determine the optimum drug concentration for each test, and the appropriate time for establishing the partition equilibrium. All experiments were carried out by two different analysts and on multiple drug lots.

[9] = Pig model, tissue and blood concentrations of zotarolimus eluted from ZoMaxx stents (FIG. 25); format: in vivo

In the case of “40-epi-N-[2′-pyridone]-rapamycin [Example 2-pyridone]”, the IC50 [1] is reported as 12400 ± 5300 pM and the t1/2 [2] is reported as 2.8 h.
For `CO[C@H]1C[C@@H]2CC[C@@H](C)[C@@](O)(O2)C(=O)C(=O)N2CCCC[C@H]2C(=O)O[C@H]([C@H](C)C[C@@H]2CC[C@H](n3ncnn3)[C@H](OC)C2)CC(=O)[C@H](C)/C=C(\C)[C@@H](O)[C@@H](OC)C(=O)[C@H](C)C[C@H](C)/C=C/C=C/C=C/1C` (single isomer, unassigned; less polar) [Example 1, 42-Epi-(tetrazolyl)-rapamycin (less polar isomer)], the “Terminal elimination half-life compared to rapamycin” value [2] was “substantially shorter”.
In the case of `COC1CC2CCC(C)C(O)(O2)C(=O)C(=O)N2CCCCC2C(=O)OC(C(C)CC2CCC(n3cnnn3)C(OC)C2)CC(=O)C(C)C=C(C)C(O)C(OC)C(=O)C(C)CC(C)C=CC=CC=C1C` (single isomer, unassigned; more polar) [Example 2, 42-Epi-(tetrazolyl)-rapamycin (more polar isomer)], the “Terminal elimination half-life compared to rapamycin” value [2] is reported as “substantially shorter”.
For `CCCCN(CCCC)C(=O)CN1C[C@H](c2ccc3c(c2)OCO3)[C@@H](C(=O)O)[C@@H]1c1ccc(OC)cc1.Cl` [ABT-627, atrasentan], the “Amount released from coupon” value ([3]; in absence of zotarolimus) is given as 50%, the “Amount released from coupon” value ([3]; in presence of zotarolimus) is given as “less than 10%” and the “LogP Values” [4] is given as 3.4.
In the case of `COc1ccccc1OCCNCC(O)COc1cccc2[nH]c3ccccc3c12` (stereo not drawn) [Carvedilol], the “LogP Values” [4] is given as 1.97.
In the case of `C#C[C@]1(O)CC[C@H]2[C@@H]3CCC4=Cc5oncc5C[C@]4(C)[C@H]3CC[C@@]21C` [Danazol], the “LogP Values” [4] is given as 4.5.
In the case of `C[C@@H]1C[C@H]2[C@@H]3CCC4=CC(=O)C=C[C@]4(C)[C@@]3(F)[C@@H](O)C[C@]2(C)[C@@]1(O)C(=O)CO` [Dexamethasone], the “Amount remaining on coupon” value ([3]; coupon containing zotarolimus) is reported as about 70%, the “Amount remaining on coupon” value ([3]; no zotarolimus present) is reported as 25% and the “Degradation in ETO sterilization environment” value ([5]; dexamethasone-only coating) is reported as “degraded”. For the same compound, the “Degradation in ETO sterilization environment” value ([5]; loaded in combination with zotarolimus, 1-to-1 ratio) was “did not degrade”, the “LogP Values” [4] was ~1.9-2.2 and the “Aqueous solubility, rank order” value [6] was “increasing order: paclitaxel, zotarolimus, rapamycin, and dexamethasone (crystalline)”.
In the case of `OCCN(CCO)c1nc(N2CCCCC2)c2nc(N(CCO)CCO)nc(N3CCCCC3)c2n1` [Dipyridamole], the “Amount released from coupon” value ([3]; in absence of zotarolimus) is reported as about 90% and the “Amount released from coupon” value ([3]; in presence of zotarolimus) is reported as “about 52%”.
Compound `COC1CC2CCC(C)C(O)(O2)C(=O)C(=O)N2CCCCC2C(=O)OC(C(C)CC2CCC(n3ccc(=O)cc3)C(OC)C2)CC(=O)C(C)C=C(C)C(O)C(OC)C(=O)C(C)CC(C)C=CC=CC=C1C` (stereo not drawn) [Example 4-pyridone, 40-epi-N-[4′-pyridone]-rapamycin] has an IC50 [1] of 430 ± 200 pM and a t1/2 [2] of 13.3 h.
In the case of `CC(C)OC(=O)C(C)(C)Oc1ccc(C(=O)c2ccc(Cl)cc2)cc1` [Fenofibrate], the “LogP Values” [4] is given as over 4.5.
In the case of `CCCCC/C=C\C/C=C\CCCCCCCC(=O)O` [Linoleic acid], the “LogP Values” [4] is given as over 6.
In the case of `CC/C=C\C/C=C\C/C=C\CCCCCCCC(=O)O` [Linolenic acid], the “LogP Values” [4] is listed as over 6.
In the case of `CCCCCCCC/C=C\CCCCCCCC(=O)O` [Oleic acid], the “LogP Values” [4] is listed as over 6.
For `CC(=O)O[C@H]1C(=O)[C@@]2(C)[C@H]([C@H](OC(=O)c3ccccc3)[C@]3(O)C[C@H](OC(=O)[C@H](O)[C@@H](NC(=O)c4ccccc4)c4ccccc4)C(C)=C1C3(C)C)[C@]1(OC(C)=O)CO[C@@H]1C[C@@H]2O` [Paclitaxel], the “Transfer coefficient, rank order” value [7] was “zotarolimus>>paclitaxel>>rapamycin>dexamethasone” and the “Aqueous solubility, rank order” value [6] was “increasing order: paclitaxel, zotarolimus, rapamycin, and dexamethasone (crystalline)”.
In the case of `O=C(Oc1ccccc1)c1ccccc1O` [Phenyl salicylate], the “LogP Values” [4] is listed as 4.1.
For `CC(C)(Sc1cc(C(C)(C)C)c(O)c(C(C)(C)C)c1)Sc1cc(C(C)(C)C)c(O)c(C(C)(C)C)c1` [Probucol], the “LogP Values” [4] is listed as over 8.
In the case of `CC(=O)[C@H]1CC[C@H]2[C@@H]3CCC4=CC(=O)CC[C@]4(C)[C@H]3CC[C@]12C` [Progesterone], the “LogP Values” [4] is listed as 3.2.
For `CO[C@H]1C[C@@H]2CC[C@@H](C)[C@@](O)(O2)C(=O)C(=O)N2CCCC[C@H]2C(=O)O[C@H]([C@H](C)C[C@@H]2CC[C@@H](O)[C@H](OC)C2)CC(=O)[C@H](C)/C=C(\C)[C@@H](O)[C@@H](OC)C(=O)[C@H](C)C[C@H](C)/C=C/C=C/C=C/1C` [Rapamycin], the “Lipophilicity rank among DES drugs tested” value [8] was “the most lipophilic compounds in the group tested”, the “Transfer coefficient, rank order” value [7] was “zotarolimus>>paclitaxel>>rapamycin>dexamethasone” and the IC50 ([1]; Homo sapiens, Lymphocyte) was 910 ± 360 pM. For the same compound, the “LogP Values” [4] was over 4.5 and the “Aqueous solubility, rank order” value [6] was “increasing order: paclitaxel, zotarolimus, rapamycin, and dexamethasone (crystalline)”.
For `CCCCCCCCCCCCCCCCCC(=O)O` [Stearic acid], the “LogP Values” [4] is listed as over 6.
In the case of `C=CC[C@@H]1/C=C(\C)C[C@H](C)C[C@H](OC)[C@H]2O[C@@](O)(C(=O)C(=O)N3CCCC[C@H]3C(=O)O[C@H](/C(C)=C/[C@@H]3CC[C@@H](O)[C@H](OC)C3)[C@H](C)[C@@H](O)CC1=O)[C@H](C)C[C@@H]2OC` [Tacrolimus], the “LogP Values” [4] is listed as over 4.5.
For `CC[C@]1(O)C[C@@H]2CN(CCc3c([nH]c4ccccc34)[C@@](C(=O)OC)(c3cc4c(cc3OC)N(C)[C@H]3[C@@](O)(C(=O)OC)[C@H](OC(C)=O)[C@]5(CC)C=CCN6CC[C@]43[C@@H]65)C2)C1` [Vinblastine], the “LogP Values” [4] is listed as 3.6.
For `CC[C@]1(O)C[C@H]2CN(CCc3c([nH]c4ccccc34)[C@@](C(=O)OC)(c3cc4c(cc3OC)N(C=O)[C@H]3[C@@](O)(C(=O)OC)[C@H](OC(C)=O)[C@]5(CC)C=CCN6CC[C@]43[C@@H]65)C2)C1` [Vincristine], the “LogP Values” [4] is given as 2.6.
In the case of `CC[C@]1(O)C[C@@H]2CN(CCc3c([nH]c4ccccc34)[C@@](C(=O)OC)(c3cc4c(cc3OC)N(C)[C@H]3[C@@](O)(C(N)=O)[C@H](O)[C@]5(CC)C=CCN6CC[C@]43[C@@H]65)C2)C1` [Vindesine], the “LogP Values” [4] is given as 1.3.
In the case of `CO[C@H]1C[C@@H]2CC[C@@H](C)[C@@](O)(O2)C(=O)C(=O)N2CCCC[C@H]2C(=O)O[C@H]([C@H](C)C[C@@H]2CC[C@H](n3cnnn3)[C@H](OC)C2)CC(=O)[C@H](C)/C=C(\C)[C@@H](O)[C@@H](OC)C(=O)[C@H](C)C[C@H](C)/C=C/C=C/C=C/1C` [Zotarolimus], the “Lipophilicity rank among DES drugs tested” value [8] is reported as “the most lipophilic of all DES drugs tested”, the “Transfer coefficient, rank order” value [7] is reported as “zotarolimus>>paclitaxel>>rapamycin>dexamethasone” and the “Concentration in arterial tissue adjacent to stent placement” value ([9]; all periods out to 28 days) is reported as “substantial concentrations”. The “Concentration in distal, unstented and subjacent myocardium and unstented and distal coronary arteries” value ([9]; throughout 28 days) was “therapeutically significant concentrations”, the “LogP Values” [4] was over 4.5 and the “Aqueous solubility, rank order” value [6] was “increasing order: paclitaxel, zotarolimus, rapamycin, and dexamethasone (crystalline)”. The “Solubility in water compared with amorphous rapamycin” value ([6]; shake-flask) was “much less soluble in water than amorphous rapamycin”.
